Results as given in patent publication US20250304526A1, “HIGH AND MULTIPLE REDOX POTENTIAL, STABLE, AND SOLUBLE BIS-DIARYLAMINE DERIVATIVES AND USES THEREOF” (University of Kentucky Research Foundation, priority 2024, published 2025).

Experiments:
Format in all cases: physicochemical
[1] = Cyclic voltammetry (redox potentials, diffusion coefficients); settings: 1 mM in 0.2M TBAPF6/CH3CN; for D (diffusion coefficient): Randles-Sevcik equation
[2] = Galvanostatic bulk electrolysis (BE) cycling in H-cell; settings: for Cyclic voltammograms before and after BE (decomposition check): 0.1M TBAPF6/CH3CN, scan rate 0.2 V·s^−1
Protocol: BE experiments were performed in custom-made H-cells. The H-cell has two electrolyte chambers separated by an ultra-fine porous glass frit (P5, Adams and Chittenden) which prevents the mixing of the electrolytes. Two homemade reticulated vitreous carbon (45 PPI, Duocel®) electrodes, placed in both chambers separately served as the working and counter electrodes. A non-aqueous Ag/Ag^+ (silver wire immersed in CH3CN containing 0.1 M TBABF4 and 0.01 M AgBF4) electrodes was used as a reference electrode and was placed next to the working electrode in the same chamber. In addition, a 3 mm-glassy carbon electrode (CH Instruments, Inc.) was attached to the working electrode chamber to record CVs before and after bulk electrolysis experiments. In each of the working and the counter electrode chambers, 3.5 mL of electrolyte containing a given concentration of the neutral active species and 0.1 M TBAPF6/CH3CN were added to both the working and the counter electrode chambers for charge-discharge cycling. The voltage cut-offs were determined by recording a CV in the working electrode side prior to the start of the bulk electrolysis experiment. The values of the cut-off voltage were set by adding 0.3 V to the calculated half-way oxidation potential determined by CV. Both the working and the counter electrode chambers were stirred throughout the bulk electrolysis experiments at a stirring speed of 900 rpm to maintain mass transfer during charging and discharging. The experiment was conducted at variable C-rates, starting with 3 C then 2 C and finally 1 C with 8 cycles run at each C-rate. The galvanostatic control and data acquisition were achieved by incorporating a BioLogic VSP potentiostat.
Galvanostatic bulk electrolysis (BE) cycling was performed to monitor the charged species self-discharge by following the coulombic efficiency (CE). BE is particularly interesting because it provides deeper insights on the electrochemical stability of the electroactive compounds upon continuous galvanostatic cycling. More information about this technique is provided in the supplementary information. Essentially, if trace impurities existing in the electrolyte trigger self-discharge of the charged species, a relatively large portion of oxidized species will switch to its uncharged form if the concentration of active species is low. However, at elevated concentrations, the relative concentration of impurities with respect to active species will be considerably lower and their effect will be minimized. In other words, higher CEs are expected when the active species concentration is larger.
CE is calculated by dividing the amount of charge passed during discharging (Qdischarge) by the amount of charge passed during charging (Qcharge). A considerably lower than 99% CE indicates instability and decomposition of active material via parasitic processes. It is known that CE is affected by the C-rate at which the battery is charged/discharged. Higher C-rates usually yield higher CEs due to the fact that less time is given for unwanted parasitic processes to consume the charged species, unlike in slow C-rates where such processes are allowed to consume charge leading to lower CEs.
BE cycling was performed at three different C-rates 3 C, 2 C, and 1 C with eight charge/discharge cycles at each C-rate. At slower charge-discharge rates, the accessed capacities were higher. This is expected due to the increase in the cell polarization at faster cycling rates.

[3] = Stability via UV-vis spectroscopy over 24 h; settings: 0.5 mM in 0.1 M TBAPF6/CH3CN
Protocol: In an argon-filled glove box, 0.5 mM solutions of neutral and radical cation were prepared in acetonitrile and pipetted into 1 mm path length optical glass cuvettes. The choice of this path length of cuvette is dictated by the aim to prevent the UV-vis detector saturation of the intensely colored cationic species. All samples destined to UV-vis stability monitoring contained 0.1 M TBAPF6 whereas UV-NIR samples were in pure CH3CN. Solutions were added to the cuvettes inside an argon filled glovebox, sealed with a Teflon screw cap and removed from the glovebox for spectral analysis. UV-vis spectra were collected in an Agilent 8453 diode-array spectrometer. Spectra were collected at 0, 1, 3, 4, 5, 6 and 24 h after dissolution.
UV-vis spectroscopy provides a means to monitor the stabilities of the radical cations over prolonged time scales that extend beyond that offered by CV. This is possible since all the charged forms show absorption features in the UV and visible regions, which enables monitoring of the change of concentrations over the course of time, based on changes in peak intensities.
The radical cation samples were prepared in 0.1 M TBAPF6/CH3CN inside an argon-filled glovebox and transferred into sealed cuvettes to prevent contact with atmospheric moisture/air when taken outside the glovebox. […]
The neutral samples of each molecule were also monitored for the sake of comparison. […]

Row | E^o′1 (first redox potential) [1] [V vs Cp2Fe^0/+] | E^o′2 (second redox potential) [1] [V vs Cp2Fe^0/+] | ΔE (E^o′2 − E^o′1) [1] | D (diffusion coefficient) [1] | Cyclic voltammograms before and after BE (decomposition check) [2] | Capacity retention during BE ([2]; all C-rates (3 C, 2 C, 1 C)) | Stability of radical cation UV-vis absorption spectrum [3] | Capacity retention during BE ([2]; after 8 cycles at 1 C) [%] | Capacity retention during BE ([2]; after 8 cycles at 2 C) [%] | Capacity retention during BE ([2]; after 8 cycles at 3 C) [%] | SMILES
1 | 0.00 | 0.38 | 0.38 | 4.49 10^−6 cm^2 · s^−1 | nearly identical | ~99% | – | – | – | – | COc1ccc(N(c2ccc(OC)cc2)c2ccc(N(c3ccc(OC)cc3)c3ccc(OC)cc3)cc2)cc1 [1^+⋅]
2 | 0.17 | 0.33 | 0.16 | 1.81 10^−6 cm^2 · s^−1 | identical CVs | good capacity retention | – | – | – | – | COc1ccc(N(c2ccc(OC)cc2)c2ccc(-c3ccc(N(c4ccc(OC)cc4)c4ccc(OC)cc4)cc3)cc2)cc1 [2^+⋅]
3 | 0.41 | 0.91 | 0.50 | 7.67 10^−6 cm^2 · s^−1 | nearly identical features | – | very subtle changes | 94 | 97 | 99 | Cc1ccc(C(F)(F)F)cc1N(c1ccc(N(c2cc(C(F)(F)F)ccc2C)c2cc(C(F)(F)F)ccc2C)cc1)c1cc(C(F)(F)F)ccc1C [3^+⋅]
4 | 0.53 | 0.69 | 0.16 | 1.54 10^−6 cm^2 · s^−1 | substantial decrease in the peak heights | remarkable capacity decay | rapid decay | – | – | – | Cc1ccc(C(F)(F)F)cc1N(c1ccc(-c2ccc(N(c3cc(C(F)(F)F)ccc3C)c3cc(C(F)(F)F)ccc3C)cc2)cc1)c1cc(C(F)(F)F)ccc1C [4^+⋅]
